IC50 data for 15 compounds are collected here from US20250186456A1, “PYRIMIDINE-FUSED CYCLIC COMPOUND AND PREPARATION METHOD AND USE THEREOF” (Genfleet Therapeutics (Shanghai) Inc., priority 2021, published 2025).

What all share (type): cell-based, human
The test system of one assay is AGS cells (KRAS G12D). In words: Cell proliferation inhibition assay, 3D, CellTiter-Glo 3D, AGS. The conditions noted are these: AGS 3D sphere model, 5 days incubation. The method in brief:
(§1)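 Spheroids (800 AsPC-1 or 400 AGS cells/well; RPMI-1640 or F-12K with 10% FBS) formed overnight, then were dosed on day 2 with a 3.16-fold series at 0.1% DMSO. After 5 days, viability was read by CellTiter-Glo 3D luminescence, and IC50 came from four-parameter fits of inhibition versus DMSO control and medium blank.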

For assay [1], the system named is AsPC-1 cells (KRAS G12D mutation). In words: Cell proliferation inhibition assay, 3D, CellTiter-Glo 3D, AsPC-1. Conditions: AsPC-1 3D sphere model, 5 days incubation. In a few lines:
as §1

For assay [2], the system named is p-ERK in AGS cells (KRAS G12D mutation). In words: Cell p-ERK assay (HTRF, Advance ERK phospho-T202/Y204 kit). The conditions noted are these: read-out: AGS p-ERK IC50. In a few lines:
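Phospho-ERK (T202/Y204) measured by HTRF in lysates of human gastric AGS cells carrying KRAS G12D, after 3 h compound exposure at 0.1% DMSO over a 3.16-fold series. Percent inhibition relative to DMSO control and lysis-only blank; four-parameter curve fitting gave IC50.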

Setting [3] is: Homo sapiens, AGS cells, 3 hours incubation with compound, HTRF.
Setting [4] is: AGS cells, 3 hours incubation with compound, HTRF.

Where two headings read alike, the source gives them in different places.

As to `C#Cc1c(F)ccc2cccc(-c3nc4c5c(nc(OCC67CCCN6C6(CC6)CC7)nc5c3F)N3C[C@H]5CC[C@H](N5)[C@H]3[C@H](C)O4)c12` (stereo partly drawn) [Example Z631, (5S,5aS,6S,9R)-2-(8-Ethynyl-7-Fluoronaphthalen-1-Yl)-1-Fluoro-5-Methyl-12-((Tetrahydrospiro[Cyclopropane-1,3′-Pyrrolizin]-7a′ (5′H)-Yl)Methoxy)-5a,6,7,8,9,10-Hexahydro-5H-4-Oxa-3,10a,11,13,14-Pentaaza-6,9-Methanonaphtho[1,8-Ab]Heptalene], the IC50 in the assay on AGS cells (KRAS G12D) (Homo sapiens, 120 h) came to 201 nM; in assay [1] (Homo sapiens, ASPC1, 120 h) it was 254 nM; in assay [2] (setting [3]) it was 91.9 nM.

As for `C#Cc1c(F)ccc2cccc(-c3nc4c5c(nc(OCC67CC(OC)CN6CCC7=C)nc5c3F)N3C[C@H]5CC[C@H](N5)[C@H]3[C@H](C)O4)c12` (stereo partly drawn) [Example Z681, (5S,5aS,6S,9R)-2-(8-Ethynyl-7-Fluoronaphthalen-1-Yl)˜1-Fluoro-12-((6-Methoxy-1-Methylenetetrahydro-1H-Pyrrolizin-7a (5H)-Yl)Methoxy)-5-Methyl-5a,6,7,8,9,10-Hexahydro-5H-4-Oxa-3,10a,11,13,14-Pentaaza-6,9-Methanonaphtho[1,8-Ab]Heptalene], the values for the IC50 (in the assay on AGS cells (KRAS G12D); in assay [1]; in assay [2] (setting [4])) were 13 nM, 37.9 nM and 5.73 nM, respectively.

Regarding `C#Cc1cccc2cc(N)cc(-c3nc4c5c(nc(O[C@@H]6CCC[C@H]6O)nc5c3F)N3C[C@H]5CC[C@H](N5)[C@H]3[C@H](C)O4)c12` [Example Z718, (1R,2R)-2-(((5S,5aS,6S,9R)-2-(3-amino-8-ethynylnaphthalen-1-yl)-1-fluoro-5-methyl-5a,6,7,8,9,10-hexahydro-5H-4-oxa-3,10a,11,13,14-pentaaza-6,9-methanonaphtho[1,8-ab]heptalen-12-yl)oxy)cyclopentan-1-ol], the IC50 in the assay on AGS cells (KRAS G12D) (Homo sapiens, 120 h) stood at 455 nM; in assay [1] (Homo sapiens, ASPC1, 120 h), 429 nM; in assay [2] (setting [3]), 157 nM.

For the compound `C#Cc1c(F)ccc2cccc(-c3nc4c5c(nc(OCC67CCCN6CC(=C(F)F)C7)nc5c3F)N3C[C@H]5CC[C@H](N5)[C@H]3[C@H](C)O4)c12` (stereo partly drawn) [Example Z608, (5S,5aS,6S,9R)-12-((2-(difluoromethylene)tetrahydro-1H-pyrrolizin-7a (5H)-yl)methoxy)-2-(8-ethynyl-7-fluoronaphthalen-1-yl)-1-fluoro-5-methyl-5a,6,7,8,9,10-hexahydro-5H-4-oxa-3,10a, 11,13,14-pentaaza-6,9-methanonaphtho[1,8-ab]heptalene], the half-maximal inhibitory concentration (IC50) with AGS cells (KRAS G12D) (Homo sapiens, 120 h) is 82.3 nM; in assay [1] (Homo sapiens, ASPC1, 120 h), 146 nM; in assay [2] (setting [3]) it was 28.4 nM.

Regarding `C#Cc1c(F)ccc2cccc(-c3nc4c5c(nc(OCC67CC(=C)CN6C[C@H](F)C7)nc5c3F)N3CC5CCC(N5)C3C(CF)O4)c12` (stereo partly drawn) [Example Z679, 2-(8-Ethynyl-7-Fluoronaphthalen-1-Yl)-1-Fluoro-12-(((2R)-2-Fluoro-6-Methylenetetrahydro-1H-Pyrrolizin-7a (5H)-Yl)Methoxy)-5-(Fluoromethyl)-5a,6,7,8,9,10-Hexahydro-5H-4-Oxa-3.10a,11,13,14-Pentaaza-6,9-Methanonaphtho[1,8-Ab]Heptalene], the values for the 50% inhibitory concentration (IC50) (in the assay with AGS cells (KRAS G12D); in assay [1]; in assay [2] (setting [4])) were 393 nM, 352 nM and 117 nM, respectively.

For `C#Cc1cccc2cc(N)cc(-c3nc4c5c(nc(OCC6(CO)CC6)nc5c3F)N3C[C@H]5CC[C@H](N5)[C@H]3[C@H](C)O4)c12` [Example Z701, (1-((((5S,5aS,6S,9R)-2-(3-amino-8-ethynylnaphthalen-1-yl)-1-fluoro-5-methyl-5a,6,7,8,9,10-hexahydro-5H-4-oxa-3,10a, 11,13,14-pentaaza-6,9-methanonaphtho[1,8-ab]heptalen-12-yl)oxy)methyl)cyclopropyl)methanol], the IC50 in the assay on AGS cells (KRAS G12D) (Homo sapiens, 120 h) amounted to 230 nM; in assay [1] (Homo sapiens, ASPC1, 120 h), 245 nM; in assay [2] (setting [3]), 39.5 nM.

On to `C#Cc1c(F)ccc2cc(O)cc(-c3nc4c5c(nc(OCC6(CO)CC6)nc5c3F)N3C[C@H]5CC[C@H](N5)[C@H]3[C@H](C)O4)c12` [Example Z708, 5-ethynyl-6-fluoro-4-((5S,5aS,6S,9R)-1-fluoro-12-((1-(hydroxymethyl)cyclopropyl)methoxy)-5-methyl-5a,6,7,8,9,10-hexahydro-5H-4-oxa-3,10a, 11,13,14-pentaaza-6,9-methanonaphtho[1,8-ab]heptalene-2-yl) naphthalen-2-ol], for which the IC50 in the assay with AGS cells (KRAS G12D) (Homo sapiens, 120 h) is 176 nM; in assay [1] (Homo sapiens, ASPC1, 120 h), 941 nM; in assay [2] (Homo sapiens, AGS, 3 h) it was 38.5 nM.

On to `CCc1cccc2cc(O)cc(-c3nc4c5c(nc(OC[C@@]67CCCN6C[C@H](F)C7)nc5c3F)N3C[C@H]5CC[C@H](N5)[C@H]3CO4)c12` [Example Z140-1, 5-Ethyl-4-((5aS,6S,9R)-1-Fluoro-12-(((2R,7aS)-2-Fluorotetrahydro-1H-Pyrrolizin-7a (5H)-Yl)Methoxy)-5a,6,7,8,9,10-Hexahydro-5H-4-Oxa-3,10a,11,13,14-Pentaaza-6,9-Methanonaphtho[1,8-Ab]Heptalen-2-Yl) Naphthalen-2-Ol], for which the IC50 was 4 nM with AGS cells (KRAS G12D) (Homo sapiens, 120 h); 21.1 nM in assay [1] (Homo sapiens, ASPC1, 120 h); 2.85 nM in assay [2] (setting [3]).

Take `C#Cc1cccc2cc(N)cc(-c3nc4c5c(nc(OC[C@]67CCCN6CC(F)(F)C7)nc5c3F)N3C[C@H]5CC[C@H](N5)[C@H]3[C@H](C)O4)c12` [Example Z734, 4-((5S,5aS,6S,9R)-12-(((R)-2,2-difluorotetrahydro-1H-pyrrolizin-7a (5H)-yl)methoxy)-1-fluoro-5-methyl-5a,6,7,8,9,10-hexahydro-5H-4-oxa-3,10a, 11,13, 14-pentaaza-6,9-methanonaphtho[1,8-ab]heptalene-2-yl)-5-ethynylnaphthalen-2-amine]: the IC50 in the assay on AGS cells (KRAS G12D) (Homo sapiens, 120 h) amounted to 17.2 nM; in assay [1] (Homo sapiens, ASPC1, 120 h), 12.1 nM; in assay [2] (setting [3]), 3.42 nM.

`C#Cc1c(F)ccc2cccc(-c3nc4c5c(nc(OCC67C[C@@H](F)CN6CCC7=C)nc5c3F)N3C[C@H]5CC[C@H](N5)[C@H]3[C@H](C)O4)c12` (stereo partly drawn) [Example Z675, (5S,5aS,6S,9R)-2-(8-ethynyl-7-fluoronaphthalen-1-yl)-1-fluoro-12-(((6R)-6-fluoro-1-methylenetetrahydro-1H-pyrrolizin-7a (5H)-yl)methoxy)-5-methyl-5a,6,7,8,9,10-hexahydro-5H-4-oxa-3,10a,11,13,14-pentaaza-6,9-methanonaphtho[1,8-ab]heptalene]: the IC50 in the assay with AGS cells (KRAS G12D) (Homo sapiens, 120 h) is 31.2 nM; in assay [1] (Homo sapiens, ASPC1, 120 h) it was 31.2 nM; in assay [2] (setting [3]), 11.1 nM.

With `C#Cc1c(F)ccc2cccc(-c3nc4c5c(nc(OC[C@]67CCCN6CC(=C)C7)nc5c3F)N3C[C@H]5CC[C@H](N5)[C@H]3[C@H](C)O4)c12` (single isomer, unassigned) [Example Z636], the IC50 in the assay on AGS cells (KRAS G12D) (Homo sapiens, 120 h) worked out at 10.9 nM; in assay [1] (Homo sapiens, ASPC1, 120 h) it was 30.6 nM; in assay [2] (setting [3]) it was 10.5 nM.

In the case of `C#Cc1cccc2cc(N)nc(-c3nc4c5c(nc(OCC67CC(=C)CN6C[C@H](F)C7)nc5c3F)N3C[C@H]5CC[C@H](N5)[C@H]3[C@H](C)O4)c12` (stereo partly drawn) [Example Z685, 8-Ethynyl-1-((5S,5aS,68,9R)-1-Fluoro-12-(((2R)-2-Fluoro-6-Methylenetetrahydro-1H-Pyrrolizin-7a (5H)-Yl)Methoxy)-5-Methyl-5a,6,7,8,9,10-Hexahydro-5H-4-Oxa-3,10a,11,13,14-Pentaaza-6,9-Methanonaphtho[1,8-Ab]Heptalen-2-Yl) Isoquinolin-3-Amine], the IC50 with AGS cells (KRAS G12D) (Homo sapiens, 120 h) was found to be 145 nM; in assay [1] (Homo sapiens, ASPC1, 120 h) it was 258 nM; in assay [2] (setting [3]) it was 30.3 nM.

Turning to `C#Cc1c(F)ccc2cccc(-c3nc4c5c(nc(OCC6(CN7CCC(=C)C7)CC6)nc5c3F)N3C[C@H]5CC[C@H](N5)[C@H]3[C@H](C)O4)c12` [Example Z698, (5S,5aS,6S,9R)-2-(8-Ethynyl-7-Fluoronaphthalen-1-Yl)-1-Fluoro-5-Methyl-12-((1-((3-Methylenepyrrolidin-1-Yl)Methyl)Cyclopropyl)Methoxy)-5a,6,7,8,9,10-Hexahydro-5H-4-Oxa-3,10a,11,13,14-Pentaaza-6,9-Methanonaphtho[1,8-Ab]Heptalene], the IC50 came to 18.8 nM in the assay with AGS cells (KRAS G12D) (Homo sapiens, 120 h); 49.3 nM in assay [1] (Homo sapiens, ASPC1, 120 h); 21.7 nM in assay [2] (setting [3]).

Regarding `C[C@@H]1Oc2nc(-c3cc(N)cc4ccc(F)c(F)c34)c(F)c3nc(OCC45CCCN4CC(F)(F)C5)nc(c23)N2C[C@H]3CC[C@H](N3)[C@@H]12` (stereo partly drawn) [Example Z720, 4-((5S,5aS,6S,9R)-12-((2,2-difluorotetrahydro-1H-pyrrolizin-7a (5H)-yl)methoxy)-1-fluoro-5-methyl-5a,6,7,8,9,10-hexahydro-5H-4-oxa-3,10a, 11,13,14-pentaaza-6,9-methanonaphtho[1,8-ab]heptalene-2-yl)-5,6-difluoronaphthalen-2-amine], the IC50 in the assay on AGS cells (KRAS G12D) (Homo sapiens, 120 h) was found to be 15.7 nM; in assay [1] (Homo sapiens, ASPC1, 120 h), 33.4 nM; in assay [2] (setting [3]), 35.1 nM.

On to `Cc1cc(-c2nc3c4c(nc(OCC5(CN6CCOCC6)CC5)nc4c2F)N2C[C@H]4CC[C@H](N4)[C@H]2[C@H](C)O3)c(C)c(N)c1C1CC1` [Example Z716, 2-cyclopropyl-5-((5S,5aS,6S,9R)-1-fluoro-5-methyl-12-((1-(morpholinomethyl)cyclopropyl)methoxy)-5a,6,7,8,9,10-hexahydro-5H-4-oxa-3,10a, 11,13,14-pentaaza-6,9-methanonaphtho[1,8-ab]heptalen-2-yl)-3,6-dimethylaniline], for which the IC50 in the assay with AGS cells (KRAS G12D) (Homo sapiens, 120 h) turned out to be 48.6 nM; in assay [1] (Homo sapiens, ASPC1, 120 h), 89.2 nM; in assay [2] (setting [3]), 81.8 nM.
